The source of these data is patent US10335448B2, “Compositions and methods for inhibiting fibrosis” (The UAB Research Foundation, priority 2014, dated 2019).

“Also recorded” adds a separate entry of the source. Where a SMILES comes first, the peptide text is derived from it.

For one data set, the system named is IMR-90 fibroblasts. The data set is described as follows: Scratch wound migration of IMR-90 fibroblasts and TGF-β1-differentiated myofibroblasts. It counts as cell-based, human. To be noted: 100 μM Ac-PGP, 48 h. How it is done:
FIGS. 11A-H show IMR-90 fibroblasts under different conditions. IMR-90 fibroblasts were grown to 80-90% confluence (A, C) and differentiated to myofibroblasts with TGF-β1 (E, G). A scratch was made and 100 μM Ac-PGP was added to some cells (FIGS. 11C, G).
(§1) The simplest explanation for this is a direct effect of Ac-PGP on the myofibroblast, altering its phenotype to stop or perhaps reverse fibrosis. […] Human lung fibroblasts were co-incubated with TGF-β and Ac-PGP and the effects on matrix generation and markers of MF activation and differentiation were observed.

In data set [1] the test system is IMR-90 fibroblasts differentiated to myofibroblasts. As to the kind of experiment: Western blot of matrix and differentiation markers in IMR-90 myofibroblasts (TGF-β plus Ac-PGP). Type of data set: cell-based, human. How it is done:
IMR-90 fibroblasts were differentiated to myofibroblasts with TGF-β 2.5 ng/ml. Ac-PGP at differing concentrations (0, 1, 3, 10 and 30 μg/ml) was added at the same time. Whole cell lysates were obtained after 48 h and probed by WB for the indicated proteins.
as §1
Background: A western blot detects proteins with antibodies after separation by electrophoresis.

The next data set addresses rhACE (Homo sapiens, UniProt P12821). Particulars: not told.
The subject of data set [2] is CXC receptors on neutrophils. To be noted: Haddox et al. 1999; cited from earlier work.
Data set [3] has as its system bleomycin-induced lung fibrosis. The data set is described as follows: Bleomycin-induced pulmonary fibrosis in mice, peptide given intratracheally. Particulars: for lung fibrosis measured as lung hydroxyproline, second trial: 250 μg IT daily for two weeks starting day 7, n=6 (FIG. 6); for lung fibrosis on histology (H&E), second trial: 250 μg per day IT for 2 weeks starting day 7 (FIG. 5); for pulmonary fibrosis, summary statement: intra-tracheal administration to bleomycin-exposed mice.

For data set [4] the test system is unchanged. Particulars: background statement; cited from earlier work.
Setting [5] is: TGF-β 2.5 ng/ml, Ac-PGP 1-30 μg/ml, 48 h, WB.

rhACE, sequence (P12821 30-1306): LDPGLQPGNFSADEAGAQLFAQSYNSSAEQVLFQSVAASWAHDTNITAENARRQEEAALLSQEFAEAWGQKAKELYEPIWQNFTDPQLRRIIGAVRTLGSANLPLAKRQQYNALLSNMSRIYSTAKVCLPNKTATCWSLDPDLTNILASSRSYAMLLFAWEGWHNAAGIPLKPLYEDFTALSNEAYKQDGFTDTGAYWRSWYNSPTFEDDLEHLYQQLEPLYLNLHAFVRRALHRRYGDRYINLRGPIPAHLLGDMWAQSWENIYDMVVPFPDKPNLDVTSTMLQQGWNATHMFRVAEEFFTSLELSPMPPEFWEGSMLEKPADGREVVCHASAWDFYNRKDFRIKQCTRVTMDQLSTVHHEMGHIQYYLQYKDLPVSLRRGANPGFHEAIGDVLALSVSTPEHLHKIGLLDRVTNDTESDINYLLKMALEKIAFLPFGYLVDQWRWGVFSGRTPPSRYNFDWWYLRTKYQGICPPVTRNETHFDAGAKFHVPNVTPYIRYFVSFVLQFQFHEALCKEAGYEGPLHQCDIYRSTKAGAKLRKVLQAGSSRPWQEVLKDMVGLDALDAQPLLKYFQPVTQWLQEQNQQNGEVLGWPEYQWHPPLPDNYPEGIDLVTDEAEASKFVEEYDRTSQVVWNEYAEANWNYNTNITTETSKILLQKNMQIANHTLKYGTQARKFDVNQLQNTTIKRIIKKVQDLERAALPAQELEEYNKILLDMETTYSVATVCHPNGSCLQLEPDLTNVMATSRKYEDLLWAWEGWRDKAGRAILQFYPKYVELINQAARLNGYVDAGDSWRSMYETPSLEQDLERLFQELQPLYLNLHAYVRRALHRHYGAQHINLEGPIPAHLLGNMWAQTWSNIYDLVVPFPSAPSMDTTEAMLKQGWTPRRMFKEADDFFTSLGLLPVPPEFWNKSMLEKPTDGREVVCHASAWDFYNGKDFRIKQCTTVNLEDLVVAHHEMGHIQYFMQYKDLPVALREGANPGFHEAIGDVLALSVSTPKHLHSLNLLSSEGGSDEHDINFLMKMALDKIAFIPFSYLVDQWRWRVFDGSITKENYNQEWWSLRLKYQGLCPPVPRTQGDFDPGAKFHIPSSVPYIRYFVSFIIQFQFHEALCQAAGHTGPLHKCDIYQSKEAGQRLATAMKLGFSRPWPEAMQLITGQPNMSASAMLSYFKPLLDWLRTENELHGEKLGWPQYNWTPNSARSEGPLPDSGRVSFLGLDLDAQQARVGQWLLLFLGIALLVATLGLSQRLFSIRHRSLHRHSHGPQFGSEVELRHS

As to `CC(=O)N1CCC[C@H]1C(=O)NCC(=O)N1CCC[C@H]1C(=O)O` [Ac-PGP, N-acetyl-proline-glycine-proline] (Ac-Pro-Gly-Pro-OH; C-terminus assumed), the “migration of un-differentiated fibroblasts across the wound” value with IMR-90 fibroblasts is listed as “did not affect; also recorded: but not fibroblasts”. For the same compound, the “migration of myofibroblasts across the wound” value in the data set with IMR-90 fibroblasts (TGF-β1-differentiated) is on record as “markedly reduced; also recorded: inhibited migration”. Besides, the “myofibroblast differentiation and pro-fibrotic functions in vitro, summary statement” value in data set [1] is “inhibited myofibroblast differentiation and pro-fibrotic functions”. In data set [1] (setting [5]), the SRC phosphorylation entry is listed as “reduced”, the collagen expression entry was “reduced”, the fibronectin expression result is “reduced” and the α-SMA expression result is on record as “reduced”. In addition, the “dose giving the greatest inhibition of myofibroblasts” value in data set [1] (lesser effects at 30 and 10 μg/ml) came out at 3 µg/mL. The “Ac-PGP breakdown by rhACE (in words)” value on rhACE is recorded as “degraded”. The “potency relative to PGP” value in data set [2] is reported as “several times more potent”. The “effectiveness on lung fibrosis measured as lung hydroxyproline” value in data set [3] (125 μg per day IT, days 7 to 21, n=8 (FIG. 4)) is recorded as “about 50%”. In addition, the “effectiveness at abrogating bleomycin-induced pulmonary fibrosis, second trial” value in data set [3] (250 μg IT daily (FIG. 5)) was ~100%. Also, in data set [3], the “lung fibrosis measured as lung hydroxyproline, second trial” value was “almost completely abrogates”; the “lung fibrosis on histology (H&E), second trial” value is on record as “abrogates”; the “pulmonary fibrosis, summary statement” value is reported as “abrogated pulmonary fibrosis dose-dependently; also recorded: dramatic inhibition of fibrosis; also recorded: greatly reduces fibrosis”. In addition, the “lung fibrosis measured as lung hydroxyproline” value in data set [3] (250 μg IT daily for two weeks starting day 7, n=8 (FIG. 4)) is “almost completely abrogates”. Also, the “lung fibrosis on lung histology (H&E)” value in data set [3] (Ac-PGP 125 μg IT per day, days 7 to 21 after bleomycin (FIG. 3)) is on record as “intermediate effect; also recorded: about half as effective”. Also, the “lung fibrosis on lung histology (H&E)” value in data set [3] (Ac-PGP 250 μg IT daily for two weeks starting day 7 after bleomycin, vs PBS-treated controls (FIG. 3)) is listed as “almost completely abrogates lung fibrosis; also recorded: almost completely abrogated”.

In the case of `C[C@H](CS)C(=O)N1CCC[C@H]1C(=O)O` [Captopril, reference compound], the “fibrosis in the bleomycin model” value in data set [4] is “reduces fibrosis”.

As for `O=C(NCC(=O)N1CCC[C@H]1C(=O)O)[C@@H]1CCCN1` [PGP, proline-glycine-proline] (H-Pro-Gly-Pro-OH; C-terminus assumed), in data set [3], the “lung fibrosis measured as lung hydroxyproline, second trial” value is given as “less effective”; the “lung fibrosis on histology (H&E), second trial” value was “partially effective; also recorded: half as effective”; the “pulmonary fibrosis, summary statement” value was “partial effect”.
